According to patent US20140106967A1, “AUXIN PLANT GROWTH REGULATORS” (The Governors of The University of Alberta, priority 2011, published 2014):

Key:
[1] = test system: 'Harvest HRS'-Spring hard-red wheat; test: Wheat growth chamber experiment, with or without heat stress (Tables W2, W3); format: in vivo, Triticum aestivum
Description: In another experiment, seeds of the wheat cultivar Harvest HRS were planted at an approximate depth of 1.5 cm in 5 inch square plastic pots (6 inch pot depth; 3 seeds per pot) in 1:1 Sunshine #4 potting mix (Sun Gro Horticulture, Vancouver, Canada) and sand. The seedlings were thinned to one seedling per pot approximately 2 weeks after seeding. Plants were grown in a Conviron growth chamber maintained at 24° C. light/20° C. dark (16 hours light/8 hours dark photoperiod; using 54W/835/HO high fluorescent bulbs [Phillips, Holland] with an average photon flux density of 540 μE m^−2s^−2. Plant were fertilized with 175 ppm 20-20-20 (N:P:K) every 3 to 4 days.
Aqueous solutions of 4-ME-IAA at 1×10^−6, 1×10^−5, or 1×10^−4 M in 0.1% (v/v) Tween 80 or a control solution (0.1% [v/v] Tween 80) were applied (sprayed on plant to cover) when the majority of the plants were at the BBCH scale 45 developmental stage (late boot stage where the flag leaf sheath [boot] is swollen with the inflorescence, but the inflorescence has not emerged from the boot). The experiment was arranged in a completely randomized design within the growth chamber.
The heat stress treatment was imposed by moving plants to receive the heat stress to a different growth chamber ((heat stress chamber) for 6 days. In the heat stress chamber, the light cycle began at 7:00 hours at a 24° C. air temperature. The heat treatment began at 11:00 hours (33° C. air temperature) and was maintained for 6 hours (until 17:00 hours). Following the heat treatment, the remainder of the light cycle was maintained at a 24° C. air temperature. The dark cycle (began at 23:00 hours) was maintained at 20° C. The photoperiod was 16 h light/8 h dark at an average photon flux density of 492 μE m^−2s^−2 using 54W/835/HO high fluorescent bulbs (Phillips, Holland). After 6 days, the heat stress-treated plants were returned to the original growth chamber maintained at non-heat stress conditions to develop to maturity.

[2] = test system: PsGA20ox1, PsGA3ox1, PsGA2ox1; test: GA biosynthesis/catabolism gene expression in pea pericarp; format: in vivo, Pisum sativum; details: 24 h treatment period
Description: During early pea fruit growth, the physiological roles of 4-chloroindole-3-acetic acid (4-Cl-IAA) and IAA, both natural pea auxins, in regulating gibberellin (GA) 20-oxidase gene expression (PsGA20ox1) were tested with 4-position, ring-substituted auxins that have a range of biological activities (fruit growth). The effect of seeds, and natural and synthetic auxins (4-Cl-IAA, and IAA; 4-Me-IAA, 4-Et-IAA and 4-F-IAA, respectively), and auxin concentration (4-Cl-IAA) on PsGA20ox1 mRNA levels in pea pericarp were investigated over a 24 h treatment period. The ability of certain 4-substituted auxins to increase PsGA20ox1 mRNA levels in deseeded pericarp was correlated with their ability to stimulate pericarp growth.

[3] = 1×10^−4 M, 6 days of heat stress (33° C. 6 h/day)
[4] = 1×10^−5 M, 6 days of heat stress (33° C. 6 h/day)
[5] = 1×10^−6 M, 6 days of heat stress (33° C. 6 h/day)

Cc1cccc2[nH]cc(CC(=O)O)c12 [4-ME-IAA, 4-methyl-indole-3-acetic acid]
Length of spike peduncle [1, 3]: 70 ± 10 mm | Number of spikes per plant [1, 3]: 25 ± 3 | Seed number per plant [1, 3]: 130 ± 23 | Seed number per spike [1, 3]: 5 ± 1 | Seed weight per plant [1, 3]: 4.08 ± 0.67 g | increase in seed number per plant vs control ([1]; 1×10^−4 M, heat stress): 73% | increase in seed weight per plant vs control ([1]; 1×10^−4 M, heat stress): 72% | Length of spike peduncle ([1]; 1×10^−4 M, non-heat stress): 62 ± 5 mm | Number of spikes per plant ([1]; 1×10^−4 M, non-heat stress): 25 ± 1 | Seed number per plant ([1]; 1×10^−4 M, non-heat stress): 163 ± 32 | Seed number per spike ([1]; 1×10^−4 M, non-heat stress): 7 ± 1 | Seed weight per plant ([1]; 1×10^−4 M, non-heat stress): 4.87 ± 0.95 g | Length of spike peduncle [1, 4]: 57 ± 5 mm | Number of spikes per plant [1, 4]: 24 ± 4 | Seed number per plant [1, 4]: 57 ± 18 | Seed number per spike [1, 4]: 3 ± 1 | Seed weight per plant [1, 4]: 1.83 ± 0.57 g | Length of spike peduncle ([1]; 1×10^−5 M, non-heat stress): 82 ± 7 mm | Number of spikes per plant ([1]; 1×10^−5 M, non-heat stress): 22 ± 3 | Seed number per plant ([1]; 1×10^−5 M, non-heat stress): 256 ± 42 | Seed number per spike ([1]; 1×10^−5 M, non-heat stress): 12 ± 1 | Seed weight per plant ([1]; 1×10^−5 M, non-heat stress): 7.56 ± 1.36 g | Length of spike peduncle [1, 5]: 72 ± 7 mm | Number of spikes per plant [1, 5]: 28 ± 3 | Seed number per plant [1, 5]: 151 ± 43 | Seed number per spike [1, 5]: 5 ± 1 | Seed weight per plant [1, 5]: 4.49 ± 1.25 g | increase in number of floral spikes per plant vs control ([1]; 1×10^−6 M, heat stress): 40% | increase in seed number per plant vs control ([1]; 1×10^−6 M, heat stress): 101% | increase in seed weight per plant vs control ([1]; 1×10^−6 M, heat stress): 90% | Length of spike peduncle ([1]; 1×10^−6 M, non-heat stress): 63 ± 6 mm | Number of spikes per plant ([1]; 1×10^−6 M, non-heat stress): 24 ± 3 | Seed number per plant ([1]; 1×10^−6 M, non-heat stress): 254 ± 81 | Seed number per spike ([1]; 1×10^−6 M, non-heat stress): 10 ± 2 | Seed weight per plant ([1]; 1×10^−6 M, non-heat stress): 8.17 ± 2.66 g | PsGA20ox1 mRNA levels in deseeded pericarp [2]: second most active auxin
